Assay results published in ChEMBL document CHEMBL1201862, “PubChem BioAssay data set” (2004).
Active and inactive are the calls of the source. Cut-off read from the data, not from the text of the source, for most assays here: actives have a measured EC50 and inactives only a lower limit.

What was measured:
[1] = biological target: Type-1 angiotensin II receptor (Homo sapiens, UniProt P30556); assay: agonist activity at AGTR1 – cell-based, uHTS hits, selectivity assay for APJ receptor agonist project, dose response (AID 488865); assay type: functional;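 note: beta-arrestin recruitment to AT1 measured by enzyme fragment complementation luminescence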
[2] = microbe, parasite or virus in culture; assay type: functional; settings: Mycobacterium tuberculosis
INS1 = assay: INS-1E survival protection against cytokine death – cell-based, luminescence, retest, dose response (AID 449756); assay type: functional; settings: Rattus norvegicus;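 note: cell death triggered by IL-1 beta plus TNF-alpha plus IFN-gamma mixture; protective hits raise ATP signal compared with cytokine alone wells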
[3] = biological target: Intestinal-type alkaline phosphatase (Mus musculus, UniProt P24822); assay: mouse intestinal alkaline phosphatase activators, dose response, biochemical, luminescence, uHTS hits (AID 488783); assay type: functional
[4] = blockers of HIV-1 envelope-mediated cell-cell fusion – cherry-pick, dose response (AID 652057); assay type: functional, cell-based
[5] = biological target: ATP-dependent molecular chaperone HSP82 (Candida albicans (strain WO-1) (Yeast), UniProt C4YTQ8); assay: steroid-induced GRE reporter decrease in yeast – S. cerevisiae, luminescence, Hsp90 inhibitor project, dose response (AID 2400); assay type: functional, cell-based;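 note: beta-galactosidase luminescence from glucocorticoid response element reporter as proxy for Hsp90 function; inhibitor potency where signal loss means Hsp90 inhibition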
[6] = alpha-synuclein stem-loop luciferase translation blockers – H4 neuroglioma cells, luminescence, confirmation (AID 1988); assay type: functional, cell-based
[7] = luciferase reporter signal suppression in cells – H4 neuroglioma cells, luminescence, dose response (AID 1990); assay type: functional, cell-based
BJ [8] = assay: BJ-TERT fibroblast viability loss – cell-based, RAS-independent, luminescence, dose response (AID 1933); assay type: functional; settings: Homo sapiens
[9] = off-target signal loss in HeLa-CEM21 co-culture – HeLa F-luc CTL cells, cherry-picked, counter-screen for HIV-1 Env fusion inhibitor project, dose response (AID 652040); assay type: functional, cell-based;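 note: potency for signal decrease marking cytotoxic or nonspecific inhibition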
Streptococcus = assay: GAS UMAA2166 growth inhibition – luminescence, BacTiterGlo, counter-screen for streptokinase expression inhibitor project, dose response (AID 1915); assay type: functional, organism-based;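 note: potency for reduction of bacterial viability or growth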
[10] = biological target: Intestinal-type alkaline phosphatase (Homo sapiens, UniProt P09923); assay: activation of human intestinal alkaline phosphatase – biochemical, dose response (AID 488873); assay type: functional
[11] = biological target: Serine/threonine-protein phosphatase (Candida dubliniensis (strain CD36 / CBS 7987 / NCPF 3949 / NRRLY-17841) (Yeast), UniProt B9W6M3); assay: blockers of CaCl2-induced CDRE-lacZ signaling – S. cerevisiae, luminescence, secondary, dose response (AID 2388); assay type: functional, cell-based;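 note: yeast reporter cells carrying a calcineurin-responsive lacZ construct stimulated with calcium chloride; luminescent beta-galactosidase reporter signal in whole cells rather than isolated phosphatase activity; potency for inhibition where a drop in reporter signal means calcineurin blockade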
[12] = biological target: Alkaline phosphatase, placental type (Homo sapiens, UniProt P05187); assay: human placental alkaline phosphatase inhibition – biochemical, luminescence, confirmation (AID 1512); assay type: functional
[13] = NIH-3T3 fibroblast cytotoxicity, dose response, cytotoxicity control, cell-based, fluorescence, Alamar Blue, secondary assay (AID 2327); assay type: functional;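 note: NIH-3T3 mouse fibroblasts cultured with fluconazole at 8 µg/mL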
[14] = alpha-synuclein stem-loop translation blockers – luminescence, H4 neuroglioblastoma cells, dose confirmation, confirmation (AID 2454); assay type: functional, cell-based;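 note: H4 neuroglioblastoma cells carrying an alpha-synuclein 5'UTR luciferase reporter; potency for inhibition of the luciferase signal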
[15] = Luminescence Cell-Based Dose Response HTS to Identify Inhibitors of 5'UTR Stem-Loop Driven Prion Protein mRNA Translation in H4 Neuroglioblastoma Cells. [Related pubchem assays: 1827 (Project Summary), 1813 (Primary HTS)]; assay type: functional
BJ [16] = assay: BJ-TERT-LT-ST fibroblast viability loss – cell-based, RAS-independent, luminescence, dose response (AID 1935); assay type: functional; settings: Homo sapiens;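 note: BJ fibroblasts immortalized with TERT plus LT and ST oncogenes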
[17] = fluconazole-exposed Candida albicans growth modulators – fluorescence, retest, confirmation (AID 2467); assay type: functional, cell-based
Beta Lactamase = Beta Lactamase (Pseudomonas aeruginosa, UniProt Q932Y6); assay: BLA reporter interference, concentration series – BLA reporter cells, FRET fluorescence, artefact control for TLR9-MyD88 binding inhibitor project, dose response (AID 588341); assay type: cell-based;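 note: cell based assay in CHO-K1 cells stably expressing beta-lactamase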
CHO = CHO cell viability loss, potency – luminescence, cytotoxicity control for TLR9-MyD88 binding inhibitor project, dose response (AID 588339); assay type: functional, cell-based, hamster; settings: Cricetulus griseus;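 note: CHO cells stably coexpressing TLR9 and MyD88 fusions from primary screen; compound exposure lasted 48 hours before viability readout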
[18] = luciferase reporter signal reduction – luminescence, H4-C neuroglioblastoma cells, dose response (AID 2458); assay type: functional, cell-based;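 note: H4 neuroglioblastoma cells stably carrying a luciferase reporter gene fusion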
[19] = biological target: NACHT, LRR and PYD domains-containing protein 3 (Homo sapiens, UniProt Q96P20); assay: NALP3 inhibitors in yeast, dose response, luminescent (AID 488799); assay type: functional
[20] = viability loss in CEM21 cells – cell-based, CellTiter-Glo luminescence, cherry-picked, cytotoxicity control for viral fusion inhibitor project, dose response (AID 652042); assay type: functional;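 note: potency for signal decrease meaning cytotoxicity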
cells = assay type: functional, cell-based
[21] = tested on: Streptococcus sp. 'group A'; assay: Streptococcus pyogenes SK(-)GAS viability under kanamycin – luminescence, BacTiterGlo, confirmation, counter-screen for streptokinase expression inhibitor project, dose response (AID 1900); assay type: functional, organism-based
BJ [22] = assay: growth inhibition of engineered Ras-driven BJ cells – cell-based, alamar blue fluorescence, cherrypicked samples, dose response (AID 2631); assay type: functional; settings: Homo sapiens;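 note: confirmatory dose-response assay in RAS-dependent BJ fibroblasts engineered with TERT, LT and ST, with cytotoxicity read by fluorescence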
BJ [23] = assay: cells; assay type: functional, cell-based; settings: Homo sapiens
[24] = biological target: Hepatocyte nuclear factor 4-alpha (Homo sapiens, UniProt P41235); assay type: functional, cell-based;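 note: biochemical luminescence-based dose-response counterscreen measuring inhibition of HNF4 dimerization, run alongside a screen for blockers of ABHD5–perilipin-5 interaction; split luciferase complementation of HNF4 fusion proteins in cell lysate measuring dimerization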
[25] = blockers of HIV-1 ZM109 envelope-driven cell-cell fusion – HeLa effector, CEM target cells, luciferase, cherry-pick, dose response (AID 652058); assay type: functional, cell-based;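 note: luciferase signal from HIV-1 Env mediated cell-cell fusion of effector and target cells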
[26] = DRD fibroblast viability loss – cell-based, non-viral oncogenic, luminescence, dose response (AID 1934); assay type: functional; settings: Homo sapiens
[27] = HIV-1 AD8 envelope cell-cell fusion blockers – cherry-pick, dose response (AID 652062); assay type: functional, cell-based;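 note: luciferase signal from cell-cell fusion driven by HIV-1 clade B AD8 Env; potency is for inhibitors of fusion seen as a drop in luminescence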
[28] = biological target: DNA dC->dU-editing enzyme APOBEC-3A (Homo sapiens, UniProt P31941); assay: Dose Response confirmation of small molecule APOBEC3A DNA Deaminase Inhibitors via a fluorescence-based single-stranded DNA deaminase assay. [Related pubchem assays (depositor defined):AID493011, AID493024]; assay type: functional
[29] = NIH3T3 cell viability loss – ATP luminescence, mouse fibroblasts, counter-screen, dose response (AID 2010); assay type: functional, cell-based;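 note: cells exposed to compound for about 90 hours before reading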
[30] = Trypanosoma cruzi growth suppression in host cells – NIH3T3 host cells, beta-gal luminescence, confirmation (AID 2044); assay type: functional, cell-based;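 note: intracellular parasites grown in NIH/3T3 mouse fibroblasts as host cells; luminescent beta-galactosidase reporter signal from transgenic T. cruzi replicating inside host cells; inhibitors lower the luminescence signal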
[31] = biological target: DNA dC->dU-editing enzyme APOBEC-3G (Homo sapiens, UniProt Q9HC16); assay type: functional;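 note: Dose-response counterscreen measuring inhibition of APOBEC3G DNA deaminase activity, run while confirming APOBEC3A inhibitors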
[32] = biological target: T1, Kappa-type opioid receptor (Homo sapiens, UniProt P41145); assay: SAR analysis of small molecule antagonists of the kappa opioid receptor via a luminescent beta-arrestin assay - Set 4. [Related pubchem assays (depositor defined):AID1777, AID1778, AID1785, AID1786, AID1966, AID2133, AID2136, AID2285]; assay type: functional
[33] = biological target: T1, Kappa-type opioid receptor; assay: SAR analysis of small molecule antagonists of the kappa opioid receptor via a luminescent beta-arrestin assay - Set 5. [Related pubchem assays (depositor defined):AID1778, AID1785]; assay type: functional

T1 sequence (P41145 whole entry): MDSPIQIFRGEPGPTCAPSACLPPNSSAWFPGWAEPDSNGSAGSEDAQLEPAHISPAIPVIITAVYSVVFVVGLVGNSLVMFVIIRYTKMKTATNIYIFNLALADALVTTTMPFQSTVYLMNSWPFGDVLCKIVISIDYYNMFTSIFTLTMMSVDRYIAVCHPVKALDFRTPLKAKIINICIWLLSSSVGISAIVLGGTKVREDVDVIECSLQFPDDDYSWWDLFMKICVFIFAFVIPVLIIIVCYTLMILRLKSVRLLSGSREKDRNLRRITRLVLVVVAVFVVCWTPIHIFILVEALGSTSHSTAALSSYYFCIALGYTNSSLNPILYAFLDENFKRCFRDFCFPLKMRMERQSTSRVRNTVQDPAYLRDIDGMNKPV
Hepatocyte nuclear factor 4-alpha, sequence (P41235 whole entry, the tested form may be a part): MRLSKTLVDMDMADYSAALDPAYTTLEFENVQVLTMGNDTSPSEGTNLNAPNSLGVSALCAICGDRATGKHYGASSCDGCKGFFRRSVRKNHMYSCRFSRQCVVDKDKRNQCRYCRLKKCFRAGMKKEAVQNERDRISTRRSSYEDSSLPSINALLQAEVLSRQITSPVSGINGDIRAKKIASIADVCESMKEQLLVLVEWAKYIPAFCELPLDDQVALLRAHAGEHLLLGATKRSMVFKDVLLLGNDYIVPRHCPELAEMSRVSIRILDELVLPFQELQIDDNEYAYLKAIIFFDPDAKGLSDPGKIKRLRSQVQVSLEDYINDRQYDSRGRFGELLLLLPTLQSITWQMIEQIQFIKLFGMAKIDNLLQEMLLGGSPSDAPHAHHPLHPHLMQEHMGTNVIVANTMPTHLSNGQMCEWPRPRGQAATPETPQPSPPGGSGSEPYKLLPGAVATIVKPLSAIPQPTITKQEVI
DNA dC->dU-editing enzyme APOBEC-3G, sequence (Q9HC16 whole entry): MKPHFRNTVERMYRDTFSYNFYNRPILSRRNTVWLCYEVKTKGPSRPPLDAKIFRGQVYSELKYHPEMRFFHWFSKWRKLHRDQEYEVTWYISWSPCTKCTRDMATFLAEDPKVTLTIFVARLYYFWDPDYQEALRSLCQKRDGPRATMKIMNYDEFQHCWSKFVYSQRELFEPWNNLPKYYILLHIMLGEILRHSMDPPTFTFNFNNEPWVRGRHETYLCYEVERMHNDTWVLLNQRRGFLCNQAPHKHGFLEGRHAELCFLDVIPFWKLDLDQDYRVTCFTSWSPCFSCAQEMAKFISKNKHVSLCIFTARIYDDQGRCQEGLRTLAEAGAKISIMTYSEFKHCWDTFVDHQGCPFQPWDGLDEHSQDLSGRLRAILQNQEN
Intestinal-type alkaline phosphatase (Homo sapiens, UniProt P09923), sequence (P09923 whole entry): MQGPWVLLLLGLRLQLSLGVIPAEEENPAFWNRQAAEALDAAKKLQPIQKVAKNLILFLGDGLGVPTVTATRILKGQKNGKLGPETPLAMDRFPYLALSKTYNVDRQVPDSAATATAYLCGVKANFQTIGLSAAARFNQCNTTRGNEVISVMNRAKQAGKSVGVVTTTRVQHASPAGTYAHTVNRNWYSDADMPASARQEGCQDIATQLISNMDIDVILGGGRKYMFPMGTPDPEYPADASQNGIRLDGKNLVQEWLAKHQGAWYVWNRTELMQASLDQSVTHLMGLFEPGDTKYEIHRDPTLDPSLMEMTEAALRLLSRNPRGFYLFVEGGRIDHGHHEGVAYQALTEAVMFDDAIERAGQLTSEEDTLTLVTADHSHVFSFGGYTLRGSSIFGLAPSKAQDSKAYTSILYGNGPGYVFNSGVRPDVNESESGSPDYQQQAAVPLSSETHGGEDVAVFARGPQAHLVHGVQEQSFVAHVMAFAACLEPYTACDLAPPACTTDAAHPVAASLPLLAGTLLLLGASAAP
Alkaline phosphatase, placental type, sequence (P05187 whole entry): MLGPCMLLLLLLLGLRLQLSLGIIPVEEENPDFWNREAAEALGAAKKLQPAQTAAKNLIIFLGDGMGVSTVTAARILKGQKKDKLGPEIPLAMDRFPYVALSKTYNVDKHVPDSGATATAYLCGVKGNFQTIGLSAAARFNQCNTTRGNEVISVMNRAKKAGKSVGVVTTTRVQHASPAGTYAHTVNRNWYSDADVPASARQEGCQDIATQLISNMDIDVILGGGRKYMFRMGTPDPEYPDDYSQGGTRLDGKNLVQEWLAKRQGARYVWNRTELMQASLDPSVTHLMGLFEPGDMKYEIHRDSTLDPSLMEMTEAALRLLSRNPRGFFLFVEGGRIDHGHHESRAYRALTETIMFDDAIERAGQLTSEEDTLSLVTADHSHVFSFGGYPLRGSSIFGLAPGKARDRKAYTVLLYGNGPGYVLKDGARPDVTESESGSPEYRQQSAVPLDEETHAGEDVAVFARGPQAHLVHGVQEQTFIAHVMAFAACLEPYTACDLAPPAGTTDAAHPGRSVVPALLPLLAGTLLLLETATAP
Serine/threonine-protein phosphatase, sequence (B9W6M3 whole entry): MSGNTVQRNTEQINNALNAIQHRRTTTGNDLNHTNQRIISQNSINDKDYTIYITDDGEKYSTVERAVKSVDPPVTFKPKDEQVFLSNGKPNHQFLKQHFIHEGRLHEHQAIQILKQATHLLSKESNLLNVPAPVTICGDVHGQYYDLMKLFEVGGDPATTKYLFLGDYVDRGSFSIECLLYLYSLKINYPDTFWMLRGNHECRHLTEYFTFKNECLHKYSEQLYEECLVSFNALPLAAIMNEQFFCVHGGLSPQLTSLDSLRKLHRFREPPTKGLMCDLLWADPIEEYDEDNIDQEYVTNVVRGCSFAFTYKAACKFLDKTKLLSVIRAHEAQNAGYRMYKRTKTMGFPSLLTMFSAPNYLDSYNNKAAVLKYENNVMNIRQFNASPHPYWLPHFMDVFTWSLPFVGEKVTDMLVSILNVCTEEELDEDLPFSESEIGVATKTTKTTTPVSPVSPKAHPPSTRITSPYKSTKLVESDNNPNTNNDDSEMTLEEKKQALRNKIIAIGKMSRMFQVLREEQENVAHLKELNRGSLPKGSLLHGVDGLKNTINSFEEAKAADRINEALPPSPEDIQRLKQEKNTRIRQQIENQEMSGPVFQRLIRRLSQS
ATP-dependent molecular chaperone HSP82, sequence (C4YTQ8 whole entry): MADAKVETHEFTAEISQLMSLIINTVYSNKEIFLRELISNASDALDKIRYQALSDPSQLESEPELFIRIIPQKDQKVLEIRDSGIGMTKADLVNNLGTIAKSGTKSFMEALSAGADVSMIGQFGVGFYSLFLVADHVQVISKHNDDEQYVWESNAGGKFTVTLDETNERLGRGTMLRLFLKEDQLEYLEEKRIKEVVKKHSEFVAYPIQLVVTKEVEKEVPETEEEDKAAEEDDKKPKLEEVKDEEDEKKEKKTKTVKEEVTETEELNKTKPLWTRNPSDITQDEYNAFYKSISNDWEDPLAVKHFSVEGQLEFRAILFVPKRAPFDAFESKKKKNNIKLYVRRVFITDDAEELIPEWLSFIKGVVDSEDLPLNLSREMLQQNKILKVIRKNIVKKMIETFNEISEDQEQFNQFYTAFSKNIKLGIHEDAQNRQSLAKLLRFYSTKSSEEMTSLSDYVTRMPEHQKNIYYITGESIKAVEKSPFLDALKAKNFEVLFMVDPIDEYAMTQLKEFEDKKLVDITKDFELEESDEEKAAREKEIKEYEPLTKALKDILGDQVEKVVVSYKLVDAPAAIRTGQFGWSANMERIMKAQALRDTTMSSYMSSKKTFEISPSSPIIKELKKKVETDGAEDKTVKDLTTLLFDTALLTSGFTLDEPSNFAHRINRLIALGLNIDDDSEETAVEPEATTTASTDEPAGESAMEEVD
NACHT, LRR and PYD domains-containing protein 3, sequence (Q96P20 whole entry, the tested form may be a part): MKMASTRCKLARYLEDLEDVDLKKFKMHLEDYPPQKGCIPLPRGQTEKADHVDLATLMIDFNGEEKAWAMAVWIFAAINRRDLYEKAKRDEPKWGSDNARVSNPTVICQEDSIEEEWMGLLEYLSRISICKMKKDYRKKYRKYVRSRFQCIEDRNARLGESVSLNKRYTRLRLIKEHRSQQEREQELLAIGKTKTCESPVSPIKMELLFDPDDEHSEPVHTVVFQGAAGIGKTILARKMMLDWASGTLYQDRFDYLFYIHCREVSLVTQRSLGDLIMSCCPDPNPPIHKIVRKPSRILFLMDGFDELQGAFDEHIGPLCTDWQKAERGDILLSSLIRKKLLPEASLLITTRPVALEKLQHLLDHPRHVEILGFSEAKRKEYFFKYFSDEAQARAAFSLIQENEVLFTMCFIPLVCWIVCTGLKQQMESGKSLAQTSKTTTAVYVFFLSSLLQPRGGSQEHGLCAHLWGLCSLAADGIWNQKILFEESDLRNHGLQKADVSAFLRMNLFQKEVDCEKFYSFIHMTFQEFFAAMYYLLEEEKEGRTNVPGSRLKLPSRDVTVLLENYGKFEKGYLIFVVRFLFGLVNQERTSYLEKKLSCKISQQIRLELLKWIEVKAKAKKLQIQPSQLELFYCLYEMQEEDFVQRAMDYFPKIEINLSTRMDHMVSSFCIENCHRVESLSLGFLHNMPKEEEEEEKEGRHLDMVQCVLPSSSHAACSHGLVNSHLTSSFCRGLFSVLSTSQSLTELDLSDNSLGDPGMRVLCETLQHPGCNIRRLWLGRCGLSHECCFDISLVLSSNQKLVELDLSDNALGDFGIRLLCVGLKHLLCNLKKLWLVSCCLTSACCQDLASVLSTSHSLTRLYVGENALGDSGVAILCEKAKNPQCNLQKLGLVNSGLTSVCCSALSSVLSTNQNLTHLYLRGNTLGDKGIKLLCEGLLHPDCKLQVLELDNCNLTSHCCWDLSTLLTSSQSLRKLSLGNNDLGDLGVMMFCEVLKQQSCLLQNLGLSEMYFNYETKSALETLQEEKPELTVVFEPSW
DNA dC->dU-editing enzyme APOBEC-3A, sequence (P31941 whole entry): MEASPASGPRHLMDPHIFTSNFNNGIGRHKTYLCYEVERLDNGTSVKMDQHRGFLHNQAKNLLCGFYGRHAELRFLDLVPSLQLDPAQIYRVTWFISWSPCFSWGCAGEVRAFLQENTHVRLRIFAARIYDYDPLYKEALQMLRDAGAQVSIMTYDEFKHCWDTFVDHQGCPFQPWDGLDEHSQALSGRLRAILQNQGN

Question: Which EC50 [1] does the source give for `CCN(CC)CCNC(=O)c1ccc(NC(=O)c2cc(-c3ccco3)nc3ccccc23)cc1` here?
Answer: Its EC50 is > 100 µM (inactive).

Question: Which CC50 [2] does the source give for `CCN1/C(=C/C=C/c2oc3ccc(-c4ccccc4)cc3[n+]2CC)Oc2ccc(-c3ccccc3)cc21` here?
Answer: The CC50 was 1.56 µM (active).

Question: What about the AC50 (INS1) of the same compound?
Answer: The AC50 was 0.23 µM (active).

Question: And the EC50 [3]?
Answer: Its EC50 is 22.2 µM (active).

Question: What about the AC50 [4] of the same compound?
Answer: Its AC50 is 1.15 µM (active).

Question: What about the EC50 [5] of the same compound?
Answer: The EC50 was 23.6 µM (active).

Question: And the EC50 [6]?
Answer: Its EC50 is < 0.1 µM (active).

Question: What about the EC50 [7] of the same compound?
Answer: The EC50 was < 0.1 µM (active).

Question: And the EC50 (BJ [8])?
Answer: The EC50 was 1.63 µM (inconclusive).

Question: And the AC50 [9]?
Answer: Its AC50 is 6.77 µM (active).

Question: And the EC50 (Streptococcus)?
Answer: The EC50 was 3.89 µM (active).

Question: What about the EC50 [10] of the same compound?
Answer: The EC50 was 24.2 µM (active).

Question: And the EC50 [11]?
Answer: The EC50 was 104 µM (active).

Question: And the IC50 [12]?
Answer: The IC50 was > 100 µM (inactive).

Question: And the EC50 [13]?
Answer: The EC50 was 3.16 µM (inconclusive).

Question: And the EC50 [14]?
Answer: The EC50 was 0.659 µM (active).

Question: What about the EC50 [15] of the same compound?
Answer: The EC50 was < 0.1 µM (active).

Question: And the EC50 (BJ [16])?
Answer: The EC50 was 3.42 µM (inconclusive).

Question: And the EC50 [17]?
Answer: Its EC50 is 0.976 µM (active).

Question: What about the IC50 (Beta Lactamase) of the same compound?
Answer: The IC50 was 10.7 µM (inactive).

Question: What about the IC50 (CHO) of the same compound?
Answer: Its IC50 is 1.45 µM (active).

Question: What about the EC50 [18] of the same compound?
Answer: The EC50 was 0.696 µM (active).

Question: And the IC50 [19]?
Answer: Its IC50 is 9.07 µM (active).

Question: What about the AC50 [20] of the same compound?
Answer: Its AC50 is 1.59 µM (active).

Question: What about the EC50 (cells) of the same compound?
Answer: The EC50 was 0.863 µM (active).

Question: And the EC50 [21]?
Answer: The EC50 was 1.5 µM (active).

Question: And the EC50 (BJ [22])?
Answer: Its EC50 is < 0.104 µM (active).

Question: What about the EC50 (BJ [23]) of the same compound?
Answer: Its EC50 is 1.32 µM (inconclusive).

Question: And the IC50 [24]?
Answer: The IC50 was 3.88 µM (active).

Question: What about the AC50 [25] of the same compound?
Answer: The AC50 was 3.77 µM (active).

Question: And the EC50 [26]?
Answer: The EC50 was 1.04 µM (inconclusive).

Question: What about the AC50 [27] of the same compound?
Answer: Its AC50 is 2.55 µM (active).

Question: Which IC50 [28] does the source give for `CCN1CCN(c2ccc(S(=O)(=O)N3CCCCC3)cc2NC(=O)COc2ccc(F)cc2Cl)CC1` here?
Answer: Its IC50 is 3.24 µM (active).

Question: What about the EC50 [29] of the same compound?
Answer: Its EC50 is > 60 µM (not active).

Question: What about the EC50 [30] of the same compound?
Answer: Its EC50 is 0.474 µM (active).

Question: What about the IC50 [31] of the same compound?
Answer: Its IC50 is 5.24 µM (active).

Question: What does the source list for `COc1ccc(CN(CCNC(=O)c2cccc(CNS(=O)(=O)c3ccc(C)cc3)c2)C(C)C)cc1`?
Answer: IC50 [32]: > 20 µM (inactive); IC50 [33]: 9.03 µM (active)
